In paper PMC6298923, “P2Y2 and P2Y6 receptor activation elicits intracellular calcium responses in human adipose-derived mesenchymal stromal cells” (Purinergic Signalling, 2018):

Assays:
P2Y2 receptor = biological target: T1, P2Y2 receptor (Homo sapiens, UniProt P41231); assay: Fura-2 intracellular calcium, FlexStation, native AD-MSCs; assay type: cell-based; conditions: agonist; peak calcium response; […] °C, pH […] extracellular Ca2+; receptor assigned by antagonist
T1 construct: gene P2RY2; native endogenous receptor in primary human adipose-derived mesenchymal stromal cells (female donors)
Text: Fura-2 intracellular calcium, FlexStation, native AD-MSCs on P2Y2 receptor

P2Y6 receptor = biological target: T2, P2Y6 receptor (Homo sapiens, UniProt Q15077); conditions: antagonist against […] ADP; peak magnitude; cells do not respond to UDP up to […]; […] °C, pH […]
T2 construct: gene P2RY6
T2 sequence (Q15077 whole entry): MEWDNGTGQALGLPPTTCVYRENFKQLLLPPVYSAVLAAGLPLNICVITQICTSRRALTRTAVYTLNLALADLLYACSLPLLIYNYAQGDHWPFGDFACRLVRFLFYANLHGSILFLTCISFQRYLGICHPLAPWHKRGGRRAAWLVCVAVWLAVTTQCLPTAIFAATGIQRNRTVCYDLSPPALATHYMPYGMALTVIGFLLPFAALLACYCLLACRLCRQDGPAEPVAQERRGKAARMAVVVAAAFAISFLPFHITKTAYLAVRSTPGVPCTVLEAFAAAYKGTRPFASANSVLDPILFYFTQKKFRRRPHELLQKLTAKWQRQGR

T1 sequence (P41231 whole entry): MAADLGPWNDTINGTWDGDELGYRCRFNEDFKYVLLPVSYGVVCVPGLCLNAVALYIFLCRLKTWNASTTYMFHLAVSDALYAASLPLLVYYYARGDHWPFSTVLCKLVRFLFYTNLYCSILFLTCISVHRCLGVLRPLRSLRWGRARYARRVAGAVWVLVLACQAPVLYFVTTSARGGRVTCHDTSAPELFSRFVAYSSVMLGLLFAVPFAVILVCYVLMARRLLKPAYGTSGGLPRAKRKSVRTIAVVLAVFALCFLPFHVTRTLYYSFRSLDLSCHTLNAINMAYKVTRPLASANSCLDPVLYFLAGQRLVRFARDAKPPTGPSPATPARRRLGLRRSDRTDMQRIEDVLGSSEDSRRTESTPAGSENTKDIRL

| EC50 (P2Y2 receptor) [nM] | Compound | IC50 (P2Y6 receptor) [nM] |
| --- | --- | --- |
| 2240 ± 1100 | Nc1ncnc2c1ncn2[C@@H]1O[C@H](COP(=O)(O)OP(=O)(O)OP(=O)(O)O)[C@@H](O)[C@H]1O [ATP] |  |
|  | S=C=Nc1cccc(NC(=S)NCCCCNC(=S)Nc2cccc(N=C=S)c2)c1 [MRS2578] | 437 ± 133 |
| 3240 ± 2800 | O=c1ccn([C@@H]2O[C@H](COP(=O)(O)OP(=O)(O)OP(=O)(O)O)[C@@H](O)[C@H]2O)c(=O)[nH]1 [UTP] |  |
